Reference: US20240166636A1, “CRYSTALLINE COMPOUNDS AND METHODS OF MAKING THE SAME” (Epizyme, Inc., priority 2019, published 2024)

Key:
Assay type in all cases: physicochemical
[1] = Hygroscopicity (dynamic vapor sorption); settings: compared to other salt forms of Compound I
Procedure: Dynamic Vapor Sorption (DVS) was measured on a VTI Model SGA-100 system. Measurement method: The relative humidity (RH) was changed in a controlled fashion, in 5% steps from 5.0% to 95.0% then back to 5.0% using the gravimetric vapor sorption system, and the weight percentage change (wt. %) of the sample at each stage was measured.

[2] = Competitive slurry experiments, thermodynamically most stable form; settings: 50/50% (w/w) mixture of Polymorph A and Polymorph B, slurried for several days, varying water content and temperature
Procedure: Several slurries were prepared, varying the water content and the temperature. […] As a result, the isolation temperature (e.g. in step b-2) was increased (e.g., from 15° C. to 22° C.) and the water content of the solvent system during the cooling crystallization was reduced (e.g., from 9.7% (v/v) to 9.0% (v/v)).

[3] = Intrinsic dissolution rate of polymorphs

| hygroscopicity [1] | SMILES | thermodynamically most stable form as a function of temperature and water content in the solvent [2] | Intrinsic Dissolution Rate (IDR) [3] [mg/min/cm^2] | % Rate relative to From A ([3]; IDR relative to Polymorph A) [%] |
| --- | --- | --- | --- | --- |
| low hygroscopicity | Br.CCN(c1cc(-c2ccc(CN3CCOCC3)cc2)cc(C(=O)NCc2c(C)cc(C)[nH]c2=O)c1C)C1CCOCC1 [Compound I hydrobromide, N-((4,6-dimethyl-2-oxo-1,2-dihydropyridin-3-yl)methyl)-5-(ethyl (tetrahydro-2H-pyran-4-yl)amino)-4-methyl-4′-(morpholinomethyl)-[1,1′-biphenyl]-3-carboxamide hydrobromide] | – | – | – |
| – | CN(C)CCc1c[nH]c2cccc(OP(=O)(O)O)c12 [Polymorph A] | stable form at higher temperatures and lower water content | 7.6 | 100 |
